Entries after “also recorded” stand apart in the source; their conditions may differ.
Legend:
mice = test: Effect of inhibitor pretreatment on LPA-, LPC- or miR-146a-induced scratching behavior; type: in vivo, mouse; details: i.t. 200 ng/5 μL, about 2 weeks before
Procedure: Behavioral assessment. Mice were shaved at the dorsal neck 1 d before experiments. […] After injections, mice were immediately placed back to the chamber, and the scratching behavior was recorded by a Panasonic video camera for 30 min. Hind limb scratching behavior directed toward the injected area at the nape of neck was observed. One scratch is defined as a lifting of the hind limb toward the injection site and then a replacing of the limb back to the floor, regardless of how many scratching strokes take place between those two movements. Behavioral analysis was conducted by observers blinded to genotype.
Control animals received the same volume of vehicles.
Lumbar puncture was made with a 30G-needle and drugs at 5 μL of volume were delivered. Scratching behavior assay was started approximately 2 weeks after resiniferatoxin treatment.

[1] = system: TRPV1+ central nerve terminals; test: Ablation of TRPV1+ central nerve terminals in spinal cord (TRPV1 immunolabeling); type: in vivo, mouse; details: i.t. 200 ng/5 μL
Procedure: To examine whether TRPV1-expressing sensory neurons contribute to LPC- or miR-146α-induced itch, we ablated the central terminals of TRPV1-expressing neurons by i.t. injection of 200 ng resiniferatoxin (RTX) into the L4/L5 subarachnoid space (Mishra et al. Mol. Cell. Neurosci. 2010, 43, 157-163). Lumbar puncture was made with a 30G-needle and drugs at 5 μL of volume were delivered. Scratching behavior assay was started approximately 2 weeks after resiniferatoxin treatment.
Immunohistochemistry and morphometry analysis. Routine procedures were followed (Chen et al. Pain 2014, 155, 2662-2672). Briefly, mice were perfused transcardially with 0.01 M PBS followed by ice-cold 4% paraformaldehyde (PFA, Sigma, St. Louis, MO). Cervical spinal cord, TGs and cervical DRGs, and dorsal neck skin were dissected and post-fixed in 4% PFA overnight, cryoprotected in 20% sucrose (48 h) and sectioned on a cryostat (30 μm for spinal cord, 12 μm for TG and DRG and neck skin). […] 4-6 sections were analyzed per mouse. […] The cutoff density threshold was determined by averaging the density of three neurons per section that were judged to be minimally positive, using ImageJ software. […] Positive cells were expressed as % of total counted TG neurons. The labeling density of TRPV1 in spinal cord was measured using the integrated density algorithm of Image J.

hTRPV4 = biological target: T1, hTRPV4 (Homo sapiens, UniProt Q9HBA0); test: Single-channel recordings of hTRPV4 in HEK293 cells; type: biochemical; details: +60 mV; 100 nM GSK101 or 5 μM LPC 18:1
T1 construct: expressed in transfected cells; host or cells: HEK293 (ATCC CRL-1573)
T1 sequence (Q9HBA0 whole entry): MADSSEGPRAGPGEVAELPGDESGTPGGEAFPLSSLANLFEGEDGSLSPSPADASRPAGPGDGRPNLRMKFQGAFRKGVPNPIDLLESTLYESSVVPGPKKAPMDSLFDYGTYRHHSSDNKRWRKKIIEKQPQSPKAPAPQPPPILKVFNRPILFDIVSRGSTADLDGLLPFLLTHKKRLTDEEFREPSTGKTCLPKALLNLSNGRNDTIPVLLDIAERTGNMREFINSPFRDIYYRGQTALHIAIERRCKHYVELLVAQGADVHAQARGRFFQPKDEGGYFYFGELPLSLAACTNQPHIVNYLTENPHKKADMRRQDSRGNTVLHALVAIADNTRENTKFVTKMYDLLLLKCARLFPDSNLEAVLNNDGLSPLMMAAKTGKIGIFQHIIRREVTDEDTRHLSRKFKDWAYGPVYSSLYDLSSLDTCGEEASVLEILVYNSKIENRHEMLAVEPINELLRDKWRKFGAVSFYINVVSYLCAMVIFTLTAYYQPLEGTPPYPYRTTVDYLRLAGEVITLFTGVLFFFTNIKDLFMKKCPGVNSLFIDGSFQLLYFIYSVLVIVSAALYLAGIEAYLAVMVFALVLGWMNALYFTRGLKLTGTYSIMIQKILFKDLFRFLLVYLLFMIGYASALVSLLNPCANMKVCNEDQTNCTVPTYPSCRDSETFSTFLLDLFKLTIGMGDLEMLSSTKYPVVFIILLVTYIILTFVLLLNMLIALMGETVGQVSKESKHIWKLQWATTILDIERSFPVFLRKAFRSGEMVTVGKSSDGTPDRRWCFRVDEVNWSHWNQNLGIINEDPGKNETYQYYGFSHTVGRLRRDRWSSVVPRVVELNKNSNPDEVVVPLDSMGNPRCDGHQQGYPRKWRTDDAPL
Procedure: (§1) Cell culture and transfection. HEK293 cells (ATCC® CRL-1573) were cultured on poly-D-lysine coated coverslips in 24-well plate containing DMEM media with high-Glucose (Gibco, Gaithersburg, MD) supplemented with 10% fetal bovine serum (FBS, HyClone Laboratories, Logan, UT) and 100 U/mL of penicillin/streptomycin (Gibco, Gaithersburg, MD). Cell cultures were maintained with 5% of CO2 in a humidified incubator at 37° C. HEK cells were transfected with rat or human wild type or mutant TRPV4 channels with EGFP or YFP coupled to their C-termini (1.5 μg of plasmid for excised patch clamp and Ca^2+ imaging and 200 ng for single-channel experiments). The jetPEI™ Polyplus transfection reagent (Polyplus Transfection, New York, NY) for electrophysiology or Lipofectamine™ 2000 Reagent (Invitrogen, Waltham, MA) for Ca^2+ imaging were used for transfections per manufacturer's instructions as previously described (Chen et al. Pain 2014, 155, 2662-2672; Morales-Lazaro et al. Nat. Commun. 2016, 7, 13092). To investigate whether miR-146a can directly activate TRPV1 channels or indirectly via TLRs, HEK293 cells were transfected with rTRPV1 or co-transfected rTRPV1 with rTLR7, rTLR2, or rTLR6 (Addgene, Watertown, MA) for Ca^2+ imaging assay. Control cells were transfected with GFP or YFP.
For single-channel recordings, Borosilicate glass […]) pipettes were used. Recordings were obtained at +60 mV by acquiring several traces of 1-3 s duration. The effect of GSK1016790A or LPC 18:1 on single TRPV4 channels was studied in inside-out. Currents were filtered at 2 kHz and sampled at 5 kHz. […] Single-channel openings and closures were identified with the half-threshold crossing technique (Morales-Lazaro et al. Nat. Commun. 2016, 7, 13092). The channel open probability was calculated as the sum of the total open time divided by the sweep duration. Dwell times and amplitude histograms in the closed or open states were collected in logarithmic time histograms according to the Sine-Sigworth transformation (Sigworth et al. Biophys. J. 1987, 52, 1047-1054). Sums of three or two exponential components were fitted to histograms using a least-squares algorithm.

[2] = system: human TRPV4 mutations (R746C, R746G, R746D, K754G, R757G, R774G, and W776G); test: Ca2+ imaging in HEK cells transfected with human TRPV4 mutations; type: cell-based; details: except a reduction with mutation W776G
Procedure: as §1, with “To investigate whether miR-146a can directly activate TRPV1 channels or indirectly via TLRs, HEK293 cells were transfected with rTRPV1 or co-transfected rTRPV1 with rTLR7, rTLR2, or rTLR6 (Addgene, Watertown, MA) for Ca^2+ imaging assay. Control cells were transfected with GFP or YFP.” left out
(§2) In vitro and ex vivo Ca^2+ imaging. […] Ratios of emissions were acquired at 0.5 Hz. ΔR/R0 was determined as the fraction of the increase of a given ratio over baseline ratio divided by baseline ratio. […]

[3] = system: rat TRPV4 mutations (R746C, R746G, R746D, K754G, R757G, R774G, and W776G); test: Ca2+ imaging in HEK cells transfected with rat TRPV4 mutations; type: cell-based; details: except a reduction with mutation W776G
Procedure: as §1
Site-directed mutagenesis of TRPV4 channels. TRPV4 sequences of multiple species were aligned using Clustal Omega program. Site-directed mutagenesis to generate point mutations in rat and human TRPV4 channels were carried out using Phusion DNA polymerase enzyme (Salazar et al. Nat. Struct. Mol. Biol. 2009, 16, 704-710; Rosenbaum et al. Neuron 2002, 33, 703-713; Hsieh et al. Methods Mol. Biol. 2013, 978, 173-186), with final sequencing to check for presence of the induced mutation. We introduced the following mutations into the rTRPV4 or hTRPV4 channel: R746C, R746G, R746D, K754G, R757G, R774G, and W776G.
as §2

[4] = cited from earlier work

| SMILES | effect on LPC-induced itch after ablation of TRPV1-expressing terminals (mice) | effect on miR-146a-induced itch after ablation of TRPV1-expressing terminals (mice) | TRPV1+ central nerve terminals in superficial layers of the spinal cord [1] | open level (single-channel) amplitude (hTRPV4) [pA] | open probability (Po) (hTRPV4) | single channel conductance (gi) (hTRPV4) [pS] | 10 nM GSK101-induced Ca2+ signal in TRPV4 mutants vs hTRPV4 [2] | 10 nM GSK101-induced Ca2+ signal in TRPV4 mutants vs rTRPV4 [3] | lethality in-vivo [4] |
| --- | --- | --- | --- | --- | --- | --- | --- | --- | --- |
| C=C(C)[C@]12C[C@@H](C)[C@@]34O[C@](Cc5ccccc5)(O[C@@H]1[C@@H]3C=C(COC(=O)Cc1ccc(O)c(OC)c1)C[C@]1(O)C(=O)C(C)=C[C@@H]41)O2 [resiniferatoxin] | significantly reduced | significant reduction; also recorded: significantly reduced | Selective ablation; also recorded: Elimination |  |  |  |  |  |  |
| CC(C)C[C@H](NC(=O)c1cc2ccccc2s1)C(=O)N1CCN(C(=O)[C@H](CO)NS(=O)(=O)c2ccc(Cl)cc2Cl)CC1 [GSK101] |  |  |  | 6.45±0.55 | 0.85±0.08 | 107 | not significantly disrupted | remained largely active; also recorded: not significantly disrupted | lethal |
